Legend:
[1] = biological target: NKA α1 purified from pig kidney (outer medulla) (Sus scrofa, UniProt P05024); assay: SPR; type: binding
Mouse NKA α3β1 = Mouse NKA α3β1 (Mus musculus, UniProt Q6PIC6); assay: NKA ATPase activity inhibition, dose response; type: biochemical

In the case of C=Cc1cccc2c1N(C)Cc1cc3c(cc1-2)OCO3 [HLY72], the Kd [1] is reported as 4.2 µM and the IC50 (Mouse NKA α3β1) is reported as 18.6 µM.

Reference: article doi:10.1101/2022.08.24.505199v2 (biorxiv, 2025)
